Literature values as cited in US20190290478A1, “MEDICINAL HERBAL COMPOSITION FOR EYE APPLICATION” (priority 2018, published 2019).

Assays:
murine dry eye = conditions: 10 mM betaine compared with placebo on the 14, 21, 35 days
[1] = test system: HCECs exposed to hyperosmotic stress

C[N+](C)(C)CC(=O)O [betaine]
dry eye's symptom (murine dry eye): significantly reduced | inflammatory response via TRPV1 pathway [1]: suppress inflammatory response
